# Source: ChEMBL document CHEMBL1201862, “PubChem BioAssay data set” (2004)
# Activity calls are given as the source filed them.
# Assays:
# [1] = molecular target: Intestinal-type alkaline phosphatase (Homo sapiens, UniProt P09923); assay: Dose Response confirmation of uHTS hits from a small molecule inhibitors of human intestinal alkaline phosphatase via a luminescent assay. [Related pubchem assays (depositor defined):AID2544, AID2574]; type: functional
# [2] = molecular target: T1, Mannose-6-phosphate isomerase (Homo sapiens, UniProt P34949); assay: inhibitors of human PMI, primary screen, biochemical, fluorescence intensity, coupled assay (AID 1209)
# T1 sequence (P34949 whole entry): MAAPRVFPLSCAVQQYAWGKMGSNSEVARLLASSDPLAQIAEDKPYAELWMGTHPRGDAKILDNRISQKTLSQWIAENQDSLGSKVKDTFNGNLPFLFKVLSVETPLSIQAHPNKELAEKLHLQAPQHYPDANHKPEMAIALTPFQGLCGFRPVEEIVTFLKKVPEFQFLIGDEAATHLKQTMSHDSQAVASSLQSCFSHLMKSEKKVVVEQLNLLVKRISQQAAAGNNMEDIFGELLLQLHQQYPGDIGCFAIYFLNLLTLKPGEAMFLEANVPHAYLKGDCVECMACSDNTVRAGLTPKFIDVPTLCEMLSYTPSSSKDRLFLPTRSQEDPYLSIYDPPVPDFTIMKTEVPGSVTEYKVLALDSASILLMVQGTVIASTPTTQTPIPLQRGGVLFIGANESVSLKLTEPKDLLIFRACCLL
# [3] = molecular target: T1, Mannose-6-phosphate isomerase; assay: human PMI inhibitors, high substrate, primary screen, biochemical, fluorescence intensity, high mannose 6-phosphate (AID 1220)
# [4] = molecular target: T2, Apoptotic protease-activating factor 1 (Homo sapiens, UniProt O14727); type: functional
# T2 sequence (O14727 whole entry): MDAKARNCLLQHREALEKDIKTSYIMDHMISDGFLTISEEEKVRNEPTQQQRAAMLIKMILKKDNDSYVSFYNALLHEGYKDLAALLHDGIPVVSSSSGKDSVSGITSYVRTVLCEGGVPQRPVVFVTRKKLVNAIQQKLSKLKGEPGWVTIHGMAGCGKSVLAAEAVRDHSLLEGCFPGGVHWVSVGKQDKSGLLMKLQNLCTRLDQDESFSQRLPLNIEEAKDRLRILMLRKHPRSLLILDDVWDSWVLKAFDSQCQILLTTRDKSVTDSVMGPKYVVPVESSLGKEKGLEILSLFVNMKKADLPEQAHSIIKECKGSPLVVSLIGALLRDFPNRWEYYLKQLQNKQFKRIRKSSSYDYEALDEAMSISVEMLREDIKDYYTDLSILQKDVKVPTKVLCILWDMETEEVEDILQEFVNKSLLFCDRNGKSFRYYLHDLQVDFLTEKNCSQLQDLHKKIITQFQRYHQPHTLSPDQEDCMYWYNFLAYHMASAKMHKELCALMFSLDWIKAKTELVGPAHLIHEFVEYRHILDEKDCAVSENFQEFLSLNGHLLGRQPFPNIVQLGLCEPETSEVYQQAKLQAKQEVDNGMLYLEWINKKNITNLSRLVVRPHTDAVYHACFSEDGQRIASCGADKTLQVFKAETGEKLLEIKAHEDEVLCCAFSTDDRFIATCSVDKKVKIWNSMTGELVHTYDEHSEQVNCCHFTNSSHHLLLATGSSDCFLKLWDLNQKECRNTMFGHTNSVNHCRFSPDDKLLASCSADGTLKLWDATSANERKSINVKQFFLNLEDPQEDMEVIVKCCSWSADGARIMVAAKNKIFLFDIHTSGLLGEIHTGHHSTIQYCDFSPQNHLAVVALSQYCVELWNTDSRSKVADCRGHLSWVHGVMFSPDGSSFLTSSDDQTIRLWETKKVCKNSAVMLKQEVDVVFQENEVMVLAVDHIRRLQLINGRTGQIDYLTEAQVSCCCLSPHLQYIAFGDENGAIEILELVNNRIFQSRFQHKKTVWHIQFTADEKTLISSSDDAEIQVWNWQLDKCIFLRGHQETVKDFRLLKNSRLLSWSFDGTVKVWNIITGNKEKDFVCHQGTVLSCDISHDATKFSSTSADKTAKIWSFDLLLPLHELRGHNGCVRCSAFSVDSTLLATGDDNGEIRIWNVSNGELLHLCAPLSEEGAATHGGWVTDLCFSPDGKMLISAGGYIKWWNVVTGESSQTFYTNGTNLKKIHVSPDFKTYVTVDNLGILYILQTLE
# [5] = molecular target: T3, Bcl-2-like protein 10 (Homo sapiens, UniProt Q9HD36); assay: displacers of TR3 peptide from Bcl-B, primary screen, selectivity assay for Bfl-1 inhibitor project, biochemical, fluorescence polarization, FITC-TR3 peptide (AID 748);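 note: fluorescence polarization from a fluorescein-labelled TR3 peptide binding purified Bcl-B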
# T3 sequence (Q9HD36 whole entry): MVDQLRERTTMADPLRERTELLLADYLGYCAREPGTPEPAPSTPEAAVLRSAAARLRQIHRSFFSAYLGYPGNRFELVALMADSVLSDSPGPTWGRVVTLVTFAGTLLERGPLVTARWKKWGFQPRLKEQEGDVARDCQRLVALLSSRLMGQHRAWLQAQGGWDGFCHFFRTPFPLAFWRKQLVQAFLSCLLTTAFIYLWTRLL
# [6] = molecular target: T4, Hexokinase HKDC1 (Homo sapiens, UniProt Q2TB90); assay: HKDC1 hexokinase inhibitors, dose response, biochemical, W721R variant (AID 504729); type: functional
# T4 sequence (Q2TB90 whole entry): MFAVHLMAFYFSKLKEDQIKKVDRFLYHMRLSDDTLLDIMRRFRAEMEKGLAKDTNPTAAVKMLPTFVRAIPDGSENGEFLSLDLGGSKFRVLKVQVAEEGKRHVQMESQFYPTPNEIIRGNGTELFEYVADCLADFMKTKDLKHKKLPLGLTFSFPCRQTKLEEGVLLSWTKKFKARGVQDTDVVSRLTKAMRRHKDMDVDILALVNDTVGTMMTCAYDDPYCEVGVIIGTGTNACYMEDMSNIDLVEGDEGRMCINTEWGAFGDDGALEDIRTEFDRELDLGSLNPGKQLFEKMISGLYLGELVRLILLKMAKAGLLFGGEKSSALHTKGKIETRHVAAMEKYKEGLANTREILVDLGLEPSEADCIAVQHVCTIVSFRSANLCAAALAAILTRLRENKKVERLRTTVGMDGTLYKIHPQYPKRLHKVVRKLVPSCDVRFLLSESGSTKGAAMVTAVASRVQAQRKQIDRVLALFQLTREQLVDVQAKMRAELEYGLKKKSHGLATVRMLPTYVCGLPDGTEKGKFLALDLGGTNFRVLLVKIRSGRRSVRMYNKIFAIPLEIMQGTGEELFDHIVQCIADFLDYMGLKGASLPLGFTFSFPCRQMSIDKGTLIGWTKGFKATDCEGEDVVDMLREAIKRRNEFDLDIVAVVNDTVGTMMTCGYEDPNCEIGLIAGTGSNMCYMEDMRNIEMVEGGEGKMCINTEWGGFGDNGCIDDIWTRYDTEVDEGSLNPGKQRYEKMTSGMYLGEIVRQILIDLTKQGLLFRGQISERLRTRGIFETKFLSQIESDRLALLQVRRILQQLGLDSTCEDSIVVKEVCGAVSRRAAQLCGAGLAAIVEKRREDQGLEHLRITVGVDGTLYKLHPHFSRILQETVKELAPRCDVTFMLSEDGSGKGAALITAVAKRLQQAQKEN
# [7] = molecular target: T5, Estrogen receptor (Homo sapiens, UniProt P03372);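 note: potency for inhibiting coactivator peptide recruitment to the receptor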
# T5 sequence (P03372 whole entry): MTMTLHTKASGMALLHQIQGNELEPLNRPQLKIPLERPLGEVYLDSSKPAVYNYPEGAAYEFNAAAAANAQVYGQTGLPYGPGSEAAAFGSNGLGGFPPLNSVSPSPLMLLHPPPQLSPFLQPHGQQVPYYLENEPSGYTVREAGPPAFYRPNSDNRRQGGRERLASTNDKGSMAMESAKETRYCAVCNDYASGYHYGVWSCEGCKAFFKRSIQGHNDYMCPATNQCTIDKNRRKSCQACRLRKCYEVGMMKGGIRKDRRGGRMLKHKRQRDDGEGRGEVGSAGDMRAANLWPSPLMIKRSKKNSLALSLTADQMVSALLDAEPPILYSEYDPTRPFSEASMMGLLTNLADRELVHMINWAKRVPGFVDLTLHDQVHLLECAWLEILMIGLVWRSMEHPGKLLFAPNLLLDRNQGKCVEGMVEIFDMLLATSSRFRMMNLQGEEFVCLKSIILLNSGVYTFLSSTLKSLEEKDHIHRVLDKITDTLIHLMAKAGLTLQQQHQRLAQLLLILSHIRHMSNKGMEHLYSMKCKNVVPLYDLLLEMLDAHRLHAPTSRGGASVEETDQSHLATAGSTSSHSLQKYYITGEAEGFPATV
# [8] = molecular target: Glyceraldehyde-3-phosphate dehydrogenase (Homo sapiens, UniProt P04406)
# Sequence of Glyceraldehyde-3-phosphate dehydrogenase (P04406 whole entry): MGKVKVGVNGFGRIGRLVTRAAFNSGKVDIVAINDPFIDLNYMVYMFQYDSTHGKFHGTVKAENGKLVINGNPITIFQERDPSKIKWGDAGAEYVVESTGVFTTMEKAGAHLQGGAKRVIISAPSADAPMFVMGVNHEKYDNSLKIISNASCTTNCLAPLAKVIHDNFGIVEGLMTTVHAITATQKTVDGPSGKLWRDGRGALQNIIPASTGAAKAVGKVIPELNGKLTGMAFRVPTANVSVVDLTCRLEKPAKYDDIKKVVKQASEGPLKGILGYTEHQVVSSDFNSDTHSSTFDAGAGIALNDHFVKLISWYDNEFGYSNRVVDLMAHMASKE
# [9] = inhibitors of intracellular T. cruzi replication, confirmation, NIH3T3 host cells, beta-gal luminescence (AID 2044); type: functional, cell-based;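 note: intracellular parasites grown in NIH/3T3 mouse fibroblasts as host cells; luminescent beta-galactosidase reporter signal from transgenic T. cruzi replicating inside host cells; inhibitors lower the luminescence signal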
# [10] = cytotoxicity toward NIH3T3 fibroblasts, dose response, counter-screen, cell-based, ATP luminescence, mouse fibroblasts (AID 2010); type: functional;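 note: cells exposed to compound for about 90 hours before reading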
# [11] = molecular target: T6, Voltage-gated N-type calcium channel alpha-1B subunit/Amyloid beta A4 precursor protein-binding family A member 1 (Homo sapiens, UniProt Q00975+Q02410); type: protein assay
# T6 sequence (Q00975 whole entry): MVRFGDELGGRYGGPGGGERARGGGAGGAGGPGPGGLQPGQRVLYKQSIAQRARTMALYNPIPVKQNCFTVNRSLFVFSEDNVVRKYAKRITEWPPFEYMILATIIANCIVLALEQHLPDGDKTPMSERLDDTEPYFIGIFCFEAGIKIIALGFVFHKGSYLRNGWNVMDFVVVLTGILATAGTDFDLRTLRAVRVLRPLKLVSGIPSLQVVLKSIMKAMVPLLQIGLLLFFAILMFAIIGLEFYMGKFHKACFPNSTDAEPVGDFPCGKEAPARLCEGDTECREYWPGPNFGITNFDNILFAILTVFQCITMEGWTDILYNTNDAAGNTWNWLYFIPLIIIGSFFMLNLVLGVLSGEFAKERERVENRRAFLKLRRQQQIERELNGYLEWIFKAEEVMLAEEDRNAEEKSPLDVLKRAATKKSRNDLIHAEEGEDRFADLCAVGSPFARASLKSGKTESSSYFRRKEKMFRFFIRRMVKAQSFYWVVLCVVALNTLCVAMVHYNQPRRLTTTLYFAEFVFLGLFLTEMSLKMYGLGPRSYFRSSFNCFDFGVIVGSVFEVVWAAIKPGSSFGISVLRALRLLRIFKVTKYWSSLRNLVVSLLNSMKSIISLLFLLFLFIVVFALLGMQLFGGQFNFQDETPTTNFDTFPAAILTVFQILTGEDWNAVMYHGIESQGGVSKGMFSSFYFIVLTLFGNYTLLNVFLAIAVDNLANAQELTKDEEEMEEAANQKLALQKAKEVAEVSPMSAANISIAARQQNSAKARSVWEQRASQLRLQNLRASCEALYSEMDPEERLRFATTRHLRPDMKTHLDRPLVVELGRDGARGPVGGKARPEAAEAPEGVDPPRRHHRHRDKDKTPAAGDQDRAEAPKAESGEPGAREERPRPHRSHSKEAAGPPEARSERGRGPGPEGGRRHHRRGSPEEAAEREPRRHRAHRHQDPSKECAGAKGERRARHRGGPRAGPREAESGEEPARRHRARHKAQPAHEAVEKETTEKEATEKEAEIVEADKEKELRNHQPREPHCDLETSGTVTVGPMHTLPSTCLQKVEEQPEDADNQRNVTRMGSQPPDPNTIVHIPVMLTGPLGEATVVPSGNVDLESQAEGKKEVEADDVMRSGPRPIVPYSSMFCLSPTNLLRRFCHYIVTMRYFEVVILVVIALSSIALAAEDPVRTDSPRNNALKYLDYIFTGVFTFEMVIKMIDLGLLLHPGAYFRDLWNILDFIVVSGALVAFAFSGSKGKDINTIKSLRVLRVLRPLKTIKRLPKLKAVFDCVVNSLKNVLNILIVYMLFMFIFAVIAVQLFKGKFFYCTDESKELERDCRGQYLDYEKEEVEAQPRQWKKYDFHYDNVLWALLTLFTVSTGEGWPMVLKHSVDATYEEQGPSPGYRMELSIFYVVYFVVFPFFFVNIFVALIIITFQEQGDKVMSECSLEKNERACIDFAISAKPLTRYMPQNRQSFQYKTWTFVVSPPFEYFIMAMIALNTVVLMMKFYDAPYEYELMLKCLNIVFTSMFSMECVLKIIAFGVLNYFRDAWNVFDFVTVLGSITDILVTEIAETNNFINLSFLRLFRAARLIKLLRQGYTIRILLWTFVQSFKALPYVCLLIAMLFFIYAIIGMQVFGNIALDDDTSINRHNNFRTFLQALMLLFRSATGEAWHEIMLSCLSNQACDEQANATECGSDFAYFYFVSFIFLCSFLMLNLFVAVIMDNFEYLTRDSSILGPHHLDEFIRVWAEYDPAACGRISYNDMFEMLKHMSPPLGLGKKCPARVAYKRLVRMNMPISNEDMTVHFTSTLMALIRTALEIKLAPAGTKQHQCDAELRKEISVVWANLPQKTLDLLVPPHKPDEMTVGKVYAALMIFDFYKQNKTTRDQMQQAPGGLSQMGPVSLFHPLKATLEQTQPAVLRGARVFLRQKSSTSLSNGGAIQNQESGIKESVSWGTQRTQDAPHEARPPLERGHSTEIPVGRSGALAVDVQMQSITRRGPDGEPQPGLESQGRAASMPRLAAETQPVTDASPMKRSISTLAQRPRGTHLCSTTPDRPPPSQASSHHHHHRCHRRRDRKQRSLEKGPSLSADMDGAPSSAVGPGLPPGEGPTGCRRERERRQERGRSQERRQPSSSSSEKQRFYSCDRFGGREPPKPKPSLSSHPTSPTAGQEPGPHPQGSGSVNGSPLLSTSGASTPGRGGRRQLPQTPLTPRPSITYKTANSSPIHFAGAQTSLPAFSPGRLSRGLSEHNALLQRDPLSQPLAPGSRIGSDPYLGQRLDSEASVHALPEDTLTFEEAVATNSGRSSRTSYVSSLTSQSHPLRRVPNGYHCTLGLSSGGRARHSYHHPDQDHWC
# T6 sequence (Q02410 whole entry): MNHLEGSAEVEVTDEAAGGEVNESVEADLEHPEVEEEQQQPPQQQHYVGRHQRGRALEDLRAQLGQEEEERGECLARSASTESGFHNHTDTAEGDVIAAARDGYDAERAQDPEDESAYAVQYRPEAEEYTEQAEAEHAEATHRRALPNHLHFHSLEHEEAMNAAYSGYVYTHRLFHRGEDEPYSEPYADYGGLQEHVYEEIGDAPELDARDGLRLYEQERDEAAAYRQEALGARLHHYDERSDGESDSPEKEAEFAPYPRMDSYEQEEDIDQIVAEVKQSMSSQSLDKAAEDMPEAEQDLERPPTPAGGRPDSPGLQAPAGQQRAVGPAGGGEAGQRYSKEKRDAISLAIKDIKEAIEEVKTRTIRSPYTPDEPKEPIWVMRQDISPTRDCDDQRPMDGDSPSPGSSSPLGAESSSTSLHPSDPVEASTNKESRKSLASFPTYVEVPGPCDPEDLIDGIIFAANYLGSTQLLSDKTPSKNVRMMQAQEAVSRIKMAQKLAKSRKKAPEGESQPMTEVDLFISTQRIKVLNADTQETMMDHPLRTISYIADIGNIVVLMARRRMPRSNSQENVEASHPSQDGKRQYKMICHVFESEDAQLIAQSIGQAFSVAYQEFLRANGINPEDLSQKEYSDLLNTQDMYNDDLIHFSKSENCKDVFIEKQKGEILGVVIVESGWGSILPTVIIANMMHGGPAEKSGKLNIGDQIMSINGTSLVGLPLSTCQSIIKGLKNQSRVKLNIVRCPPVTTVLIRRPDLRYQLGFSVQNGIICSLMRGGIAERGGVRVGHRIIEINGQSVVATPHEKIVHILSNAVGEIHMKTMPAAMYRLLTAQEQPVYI
# [12] = molecular target: T6, Voltage-gated N-type calcium channel alpha-1B subunit/Amyloid beta A4 precursor protein-binding family A member 1; type: protein assay; remark: listed apart in the source
# [13] = molecular target: T7, Alkaline phosphatase, tissue-nonspecific isozyme (Homo sapiens, UniProt P05186); assay: human TNAP enzyme inhibitors, SAR follow-up, biochemical, luminescent, dose response (AID 1056)
# T7 sequence (P05186 whole entry): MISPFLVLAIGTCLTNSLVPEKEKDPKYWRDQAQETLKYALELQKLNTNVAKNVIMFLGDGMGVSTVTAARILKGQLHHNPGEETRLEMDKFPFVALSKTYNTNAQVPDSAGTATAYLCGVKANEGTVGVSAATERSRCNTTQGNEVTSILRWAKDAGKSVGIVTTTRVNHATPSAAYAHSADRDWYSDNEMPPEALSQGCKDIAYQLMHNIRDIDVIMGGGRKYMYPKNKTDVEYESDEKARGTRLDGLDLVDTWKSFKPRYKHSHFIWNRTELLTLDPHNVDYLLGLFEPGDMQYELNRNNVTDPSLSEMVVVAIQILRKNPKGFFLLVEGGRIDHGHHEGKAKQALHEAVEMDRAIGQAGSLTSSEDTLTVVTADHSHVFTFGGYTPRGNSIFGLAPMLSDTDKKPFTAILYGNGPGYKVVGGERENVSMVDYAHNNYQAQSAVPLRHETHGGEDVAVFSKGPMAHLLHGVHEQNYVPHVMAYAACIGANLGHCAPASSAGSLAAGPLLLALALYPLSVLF
# [14] = molecular target: Induced myeloid leukemia cell differentiation protein Mcl-1 (Homo sapiens, UniProt Q07820); type: functional
# Sequence of Induced myeloid leukemia cell differentiation protein Mcl-1 (Q07820 whole entry): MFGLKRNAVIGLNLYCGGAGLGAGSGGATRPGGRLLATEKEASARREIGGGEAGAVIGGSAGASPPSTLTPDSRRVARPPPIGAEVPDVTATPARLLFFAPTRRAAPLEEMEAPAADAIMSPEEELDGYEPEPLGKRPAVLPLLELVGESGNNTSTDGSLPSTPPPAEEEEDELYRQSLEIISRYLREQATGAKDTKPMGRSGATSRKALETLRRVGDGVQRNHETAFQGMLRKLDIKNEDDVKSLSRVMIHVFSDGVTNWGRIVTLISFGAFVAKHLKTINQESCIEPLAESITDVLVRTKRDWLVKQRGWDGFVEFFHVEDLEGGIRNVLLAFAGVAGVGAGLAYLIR
# [15] = molecular target: G-protein coupled receptor 55 (Homo sapiens, UniProt Q9Y2T6); assay: GPR55 agonists via beta-arrestin recruitment, primary screen, imaging, U2OS cells, beta-arrestin-GFP redistribution (AID 1961); type: functional
# Sequence of G-protein coupled receptor 55 (Q9Y2T6 whole entry): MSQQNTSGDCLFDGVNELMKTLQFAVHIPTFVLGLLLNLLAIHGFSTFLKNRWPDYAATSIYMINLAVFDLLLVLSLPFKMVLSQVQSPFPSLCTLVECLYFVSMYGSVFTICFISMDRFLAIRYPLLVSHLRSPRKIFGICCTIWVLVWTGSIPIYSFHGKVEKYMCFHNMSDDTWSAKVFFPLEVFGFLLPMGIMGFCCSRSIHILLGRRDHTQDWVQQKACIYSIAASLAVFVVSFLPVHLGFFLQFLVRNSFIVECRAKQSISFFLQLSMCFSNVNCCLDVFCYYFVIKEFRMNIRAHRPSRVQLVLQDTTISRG
# [16] = molecular target: Estrogen receptor beta (Homo sapiens, UniProt Q92731);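 note: recombinant ER-beta bound to coactivator SRC1 peptide in presence of estradiol agonist; inhibitors block coactivator peptide binding and lower the FRET signal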
# Sequence of Estrogen receptor beta (Q92731 whole entry): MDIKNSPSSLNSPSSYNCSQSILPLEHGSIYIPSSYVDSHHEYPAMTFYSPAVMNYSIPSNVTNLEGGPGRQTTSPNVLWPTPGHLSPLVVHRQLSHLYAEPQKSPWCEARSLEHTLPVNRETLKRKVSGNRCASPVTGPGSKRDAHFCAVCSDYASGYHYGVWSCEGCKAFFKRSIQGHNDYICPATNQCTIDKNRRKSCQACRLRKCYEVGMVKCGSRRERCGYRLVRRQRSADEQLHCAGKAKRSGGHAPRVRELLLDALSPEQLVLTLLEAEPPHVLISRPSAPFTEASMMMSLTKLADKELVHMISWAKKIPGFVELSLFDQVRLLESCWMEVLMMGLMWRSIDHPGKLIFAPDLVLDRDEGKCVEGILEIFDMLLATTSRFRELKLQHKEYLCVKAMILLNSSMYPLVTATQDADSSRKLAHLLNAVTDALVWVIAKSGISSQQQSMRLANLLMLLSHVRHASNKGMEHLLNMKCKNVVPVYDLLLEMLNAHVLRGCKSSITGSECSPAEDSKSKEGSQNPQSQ
smiles,measurement,setting,value
O=C(CN1CCN(C(=O)N2CCCCC2)CC1)Nc1ccc(F)cc1,IC50,[1],> 100 µM (inactive)
CCCCCn1c(NC(=O)c2ccco2)c(C(=O)OCC)c2nc3ccccc3nc21,IC50,[2],> 50 µM (not active)
same,IC50,[3],> 50 µM (not active)
same,IC50,[4],20.3 µM (active)
Cc1c(Cl)cnc(NC(=O)COC(=O)C(NC(=O)c2ccco2)C(C)C)c1Cl (stereo unspecified),IC50,[5],18.2 µM (active)
CC(C)c1nc2oc3c(NCCO)ncnc3c2c2c1COC(C)(C)C2,IC50,[6],3.39 µM (active)
Cc1cc(C)nc(NC(=O)CSc2nn(C)c(=S)s2)n1,IC50,[7],8.77 µM (active)
Cc1ccc2[nH]c(SCC(=O)Nc3ccc(O)c(C(=O)O)c3)nc2c1,IC50,[8],> 100 µM (not active)
COC(=O)c1cc2ccsc2n1CC(=O)Nc1ccc(N(C)C)cc1,IC50,[7],47.3 µM (not active)
same,EC50,[9],4.34 µM (active)
same,EC50,[10],> 30 µM (not active)
CC1=C(C(=O)O)N2C(=O)C(NC(=O)c3nn(C)c(C)c3Cl)C2SC1 (stereo unspecified),IC50,[11],9.8 µM (active)
same,IC50,[12],> 50 µM (inactive)
COc1ccccc1Oc1ccc(S(=O)(=O)Nc2cccnc2)cc1,IC50,[8],> 100 µM (not active)
same,IC50,[13],> 100 µM (inactive)
Cc1snc(SCC(=O)c2ccc([N+](=O)[O-])cc2)c1C#N,IC50,[2],33.9 µM (active)
N#CC(C#N)=NNc1ccc(S(N)(=O)=O)cc1,IC50,[11],16.9 µM (active)
same,IC50,[12],> 50 µM (inactive)
same,IC50,[14],4.71 µM (active)
CCCN(CCC)c1nc2c(C)cccn2c(=O)c1/C=C1/SC(=S)N(Cc2ccco2)C1=O,EC50,[9],0.352 µM (active)
same,EC50,[10],> 30 µM (not active)
same,EC50,[15],2.97 µM (active)
CC(=O)Nc1ccc(SC[C@H](CC(C)C)N2CCN(CCc3ccccc3)CCC2=O)cc1,EC50,[15],9 µM (active)
Cc1cc(Cl)c(S(=O)(=O)Nc2ccc3c(c2)OCO3)cc1OCC(N)=O,IC50,[7],> 50 µM (not active)
same,IC50,[16],> 50 µM (not active)
O=C1[C@H]2CCCC[C@H]2C(=O)N1c1nnc(Cc2ccc(F)cc2)[nH]1,IC50,[8],> 100 µM (not active)
same,IC50,[13],10.2 µM (active)
Cc1nc2c(c(=O)c3ccccc3n2C)c(=O)n1-c1ccccc1,IC50,[6],11.8 µM (active)
CSc1nnc(NC(=O)CSc2nc(C)cc(C)n2)[nH]1,IC50,[13],> 100 µM (inactive)
C=CCN1C(=O)/C(=C2/C(=O)N(CC(=O)O)c3ccccc32)S/C1=N/c1nccs1,IC50,[5],3.03 µM (active)
same,IC50,[14],2.78 µM (active)
